# Reference: ChEMBL document CHEMBL1129386, “Synthesis and immunostimulating properties of lipophilic ester and ether muramyl peptide derivatives” (J Med Chem, 1996)
# Tested on: RAW264.7
# Experiment: Concentration of compound which increased the nitrite production in RAW 264.7 mouse monocyte-macrophage line
# Assay type: functional, cell-based
compound,measurement,value
CC(=O)N[C@@H]1[C@@H](OC(C)C(=O)N[C@@H](C)C(=O)N[C@H](CCC(=O)N[C@@H](C)C(=O)O[C@H]2CC[C@@]3(C)C(=CC[C@H]4[C@@H]5CC[C@H]([C@H](C)CCCC(C)C)[C@@]5(C)CC[C@@H]43)C2)C(N)=O)[C@H](O)[C@@H](CO)O[C@@H]1O (stereo partly specified),Concentration,1 µM
